Results: patent publication US20060194853A1, “Alkyl benzamides” (priority 2004, published 2006)

Legend:
Assay type in all cases: cell-based
[1] = system: Trichomonas vaginalis UCH-1; assay: in vitro growth inhibition of Trichomonas vaginalis; settings: for IC50: in vitro, concentration required to inhibit 50% of the growth of the organisms; for effective against T. vaginalis: result in words
[2] = system: Giardia intestinalis JKH-1; assay: in vitro growth inhibition of Giardia intestinalis; settings: for IC50: Giardia duodenalis, in vitro, concentration required to inhibit 50% of the growth of the organisms; for effective against G. intestinalis: result in words
Helicobacter pylori = assay: activity against Helicobacter pylori; settings: result in words
Campylobacter jejuni = assay: activity against Campylobacter jejuni; settings: result in words
Influenza A = assay: activity against Influenza A; settings: result in words
Influenza B = assay: activity against Influenza B; settings: result in words
Herpes Varicella A = assay: activity against Herpes Varicella (VZV); settings: result in words
P. falciparum = assay: activity against P. falciparum; settings: result in words

Structure (SMILES)	IC50 [2] [nM]	IC50 ([1]; Trichomonas vaginalis, UCH1) [nM]	effective against G. intestinalis [2]	effective against T. vaginalis [1]	other results
O=C(Nc1ncc([N+](=O)[O-])s1)c1ccccc1O [Compound A, 2-hydroxy-N-(5-nitro-2-thiazolyl) benzamide, reference compound]					IC50 [1]: 1520 nM
CC(=O)Oc1ccccc1C(=O)Nc1ncc([N+](=O)[O-])s1 [Compound B, 2-acetyloxy-N-(5-nitro-2-thiazolyl)benzamide, reference compound]	12500	605			
CC(=O)Oc1c(C)cccc1C(=O)Nc1ncc([N+](=O)[O-])s1 [Compound D, 2-acetyloxy-3-methyl-N-(5-nitro-2-thiazolyl) benzamide]	560	8040	effective	effective	potency against Giardia intestinalis compared to nitazoxanide ([2]; comparison in words, from TABLE I): significantly more potent than nitazoxanide; effective against H. Pylori (Helicobacter pylori): effective; effective against C. jejuni (Campylobacter jejuni): effective; effective against Influenza A (Influenza A): effective; effective against Influenza B (Influenza B): effective; effective against Herpes VZV (Herpes Varicella A): effective; effective against P. falciparum (P. falciparum): effective
CC(=O)Oc1cc(C)ccc1C(=O)Nc1ncc([N+](=O)[O-])s1 [Compound F, 2-acetyloxy-4-methyl-N-(5-nitro-2-thiazolyl) benzamide]			effective	effective	
CC(=O)Oc1ccc(C)cc1C(=O)Nc1ncc([N+](=O)[O-])s1 [Compound H, 2-acetyloxy-5-methyl-N-(5-nitro-2-thiazolyl) benzamide]			effective	effective	
